Results from patent publication US7094869B2, “Low molecular weight peptidomimetic growth hormone secretagogues” (Genentech, Inc., priority 1994, dated 2006).
Read-outs that look alike come from different tables or passages of the source. Starred links: 1 amine or outer side, 2 acyl side, 3 side chain; linkers in the order of their positions; H or OH if unused. Non-standard residues stand in square brackets, D forms with d. Residues, ends and D or L forms follow the SMILES beside them. ξ: configuration not given here. dNMe2Nal = CN[C@H](Cc1ccc2ccccc2c1)C(=O)O; dPhe(4-Cl) = N[C@H](Cc1ccc(Cl)cc1)C(=O)O; d2Nal = N[C@H](Cc1ccc2ccccc2c1)C(=O)O; ξNMe2Nal = CNC(Cc1ccc2ccccc2c1)C(=O)O; d(hPhe) = N[C@H](CCc1ccccc1)C(=O)O; β3hAib = CC(C)(CC(=O)[*:2])N[*:1]; ξ2Nal = NC(Cc1ccc2ccccc2c1)C(=O)O; NMeGABA = CN(CCCC(=O)[*:2])[*:1]; hPhe = N[C@@H](CCc1ccccc1)C(=O)O; β3hF = N[C@H](CC(=O)O)Cc1ccccc1; Inp = O=C(O)C1CCNCC1; ξK = NCCCCC(N)C(=O)O; Ava = NCCCCC(=O)O; GABA = NCCCC(=O)O

What was measured:
rat pituitary cells = rat pituitary cells (Rattus norvegicus, UniProt O08725); settings: read-out: PIT Cell EC50, GH release, 15 min incubation
rat pituitary cells, sequence (O08725 whole entry): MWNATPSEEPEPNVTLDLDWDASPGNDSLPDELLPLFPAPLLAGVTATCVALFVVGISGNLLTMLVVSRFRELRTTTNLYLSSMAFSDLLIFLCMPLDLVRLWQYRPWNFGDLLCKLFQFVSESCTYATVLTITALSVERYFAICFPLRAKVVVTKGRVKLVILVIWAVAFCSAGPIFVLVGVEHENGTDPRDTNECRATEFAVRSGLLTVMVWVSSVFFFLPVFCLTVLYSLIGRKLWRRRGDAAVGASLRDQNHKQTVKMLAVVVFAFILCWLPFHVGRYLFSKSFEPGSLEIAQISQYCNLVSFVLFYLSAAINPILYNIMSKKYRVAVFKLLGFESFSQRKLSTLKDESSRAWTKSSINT
Procedure, shortened: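 Primary rat anterior pituitary cells, cultured three days in DME low glucose/10% FBS, were washed, pre-incubated twice for 15 min, then challenged 15 min with test compounds (DMSO ≤0.1%) at 37 °C. Released GH was measured by two-site ELISA; EC50 came from 4-parameter fits, mean of three to four independent determinations.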

growth hormone secretion = assay: GHRP induced growth hormone secretion, intravenous administration (Rat IV); type: in vivo; settings: iv injection, serum GH 10 min after injection
Method: Immature weanling female Sprague Dawley rats were purchased from Charles River Labs (Portage, […].) and group housed with water and food available ad libitum. When the rats were 24-30 days old (weighing 50-90 g) they were anesthetized with pentobarbitone (4 mg in 0.5 ml, approximately 60 mg/kg) given by intraperitoneal injection. The rats were then placed briefly on a heated pad, to distend their tail veins, and given an intravenous tail vein injection of the peptides 20 minutes after receiving the anesthetic. The intravenous injection was of 0.1 ml using a 1 ml syringe. The injections contained graded doses of peptides or the vehicle (vehicle for all peptides given intravenously was a buffer of 20 mM sodium acetate, 45 g/l mannitol, pH 5.0). Ten minutes after the intravenous injection blood was taken by cardiac puncture, using a 3 ml syringe, and the rats were then sacrificed.
The blood was then clotted on ice, centrifuged, serum decanted and frozen for subsequent analysis using the rat GH ELISA described elsewhere in the application. For the rat GH ELISA the serum was diluted 1:50 or 1:250, depending on the expected serum GH concentrations achieved, and assayed in duplicate.

[1] = Table IV, formula III compounds
[2] = Table III, formula IV compounds

Structure (SMILES) | EC50 (rat pituitary cells; [1]) [nM] | RAT IV ED50 (growth hormone secretion; Table IV) [µg] | EC50 (rat pituitary cells; [2]) [nM] | RAT IV ED50 (growth hormone secretion; Table III) [µg] | further results
NCCCCN(CCc1ccccc1)C(=O)[C@@H](Cc1ccc2ccccc2c1)NC(=O)[C@@H](Cc1ccc2ccccc2c1)NC(=O)C1CCNCC1 [(inip) b b fbd, (inip)-DβNal-DβNal-[N-(2-phenylethyl), N-(4-aminobutyl)] amide] | 0.9 | 0.67 | – | – | –
NCCCCNC(=O)[C@H](Cc1ccc2ccccc2c1)NC(=O)[C@H](Cc1ccc2ccccc2c1)NC(=O)[C@@H](Cc1ccccc1)NC(=O)CCCCN [(Ava) f B B bam, (5-aminovaleryl)-DPhe-βNal-βNal-[N-(4-aminobutyl)] amide] | – | – | – | – | EC50 (rat pituitary cells; Table VI, retroinverso compounds of formula V): 22 nM; RAT IV ED50 (growth hormone secretion; Table VI): 100 µg
CNC(=O)[C@H](Cc1ccccc1)NC(=O)[C@@H](Cc1ccc2ccccc2c1)NC(=O)[C@@H](Cc1ccc2ccccc2c1)NC(=O)C1CCNCC1 [(inip) b b F mam] (H-[Inp][d2Nal][d2Nal]F-NHMe) | – | – | 2 | 2 | –
NCCCC[C@H](NC(=O)[C@H](Cc1ccccc1)NC(=O)[C@@H](Cc1c[nH]c2ccccc12)NC(=O)[C@@H](Cc1ccc2ccccc2c1)NC(=O)CN)C(N)=O [G b w F K amide] (H-G[d2Nal][dW]FK-NH2) | – | – | 0.8 | 4.8 | –
COC(=O)[C@H](Cc1ccccc1)NC(=O)[C@@H](Cc1ccc2ccccc2c1)NC(=O)[C@@H](Cc1ccc2ccccc2c1)NC(=O)C1CCNCC1 [(inip) b b F Me ester] (H-[Inp][d2Nal][d2Nal]F-OMe) | 2.8 | 2 | – | – | –
CC(C)(N)CC(=O)N[C@H](Cc1ccc2ccccc2c1)C(=O)N[C@H](Cc1ccc2ccccc2c1)C(=O)N[C@@H](Cc1ccccc1)C(=O)N[C@@H](CCCCN)C(N)=O [(nba) b b F K amide] (β3hAib-[d2Nal][d2Nal]FK-NH2) | – | – | 2.8 | 100 | –
NCCCCC(=O)N[C@H](Cc1ccc2ccccc2c1)C(=O)N[C@H](Cc1ccc2ccccc2c1)C(=O)N[C@@H](Cc1ccccc1)C(=O)N[C@@H](CCCCN)C(N)=O [(Ava) b b F K amide] (H-[Ava][d2Nal][d2Nal]FK-NH2) | – | – | 2.8 | 2.6 | –
C[C@@H](N)C(=O)N[C@H](Cc1c[nH]c2ccccc12)C(=O)N[C@H](Cc1c[nH]c2ccccc12)C(=O)N[C@@H](Cc1ccccc1)C(=O)N[C@@H](CCCCN)C(N)=O [a w w F K amide] (H-[dA][dW][dW]FK-NH2) | – | – | 4.1 | 1.47 | –
NC(=O)[C@H](Cc1ccccc1)NC(=O)[C@@H](CCc1ccccc1)NC(=O)[C@@H](Cc1ccc2ccccc2c1)NC(=O)C1CCNCC1 [(inip) b hf F amide] (H-[Inp][d2Nal][d(hPhe)]F-NH2) | 14 | 10 | – | – | –
NCCCCNC(=O)[C@@H](Cc1ccc2ccccc2c1)NC(=O)[C@@H](Cc1ccc2ccccc2c1)NC(=O)C1CCNCC1 [(inip) b b bam, (inip)-DβNal-DβNal-[N-(4-aminobutyl)] amide] | 18.5 | 3.3 | – | – | –
NC[C@H](Cc1ccc2ccccc2c1)NC(=O)[C@@H](Cc1ccc2ccccc2c1)NC(=O)C1CCNCC1 [(inip) b Bmn] | – | – | – | – | EC50 (rat pituitary cells; Table V, formula II compounds): 36 nM; RAT IV ED50 (growth hormone secretion; Table V): 20 µg
CN(C(=O)CCCN)[C@H](Cc1ccc2ccccc2c1)C(=O)N[C@H](Cc1ccc2ccccc2c1)C(=O)N[C@@H](Cc1ccccc1)C(=O)N[C@@H](CCCCN)C(N)=O [(Ab) nmb b F K amide] (H-[GABA][dNMe2Nal][d2Nal]FK-NH2) | – | – | 0.5 | 1 | –
NCCCNC(=O)[C@@H](Cc1ccc2ccccc2c1)NC(=O)[C@@H](Cc1ccc2ccccc2c1)NC(=O)C1CCNCC1 [(inip) b b ram] | 16 | 5 | – | – | –
NCCCCC(=O)N[C@H](Cc1ccc2ccccc2c1)C(=O)N[C@H](Cc1ccc2ccccc2c1)C(=O)N[C@@H](Cc1ccccc1)C(N)=O [(Ava) b b F amide] (H-[Ava][d2Nal][d2Nal]F-NH2) | 17.1 | 100 | – | – | –
NCCCC[C@H](NC(=O)[C@H](Cc1ccccc1)NC(=O)[C@@H](Cc1c[nH]c2ccccc12)NC(=O)[C@@H](Cc1c[nH]c2ccccc12)NC(=O)CN)C(N)=O [G w w F K amide] (H-G[dW][dW]FK-NH2) | – | – | 2.1 | 2.5 | –
NCCCCC(=O)N[C@H](Cc1c[nH]c2ccccc12)C(=O)N[C@H](Cc1c[nH]c2ccccc12)C(=O)N[C@@H](Cc1ccccc1)C(=O)N[C@@H](CCCCN)C(N)=O [(Ava) w w F K amide] (H-[Ava][dW][dW]FK-NH2) | – | – | 13 | 5 | –
COC(=O)[C@H](Cc1ccccc1)NC(=O)[C@@H](Cc1ccc2ccccc2c1)NC(=O)[C@@H](Cc1ccc2ccccc2c1)N(C)C(=O)C1CCNCC1 [(inip) nmb b F Me ester] (H-[Inp][dNMe2Nal][d2Nal]F-OMe) | 1.4 | 10 | – | – | –
C[C@H](N)C(=O)N[C@H](Cc1ccc2ccccc2c1)C(=O)N[C@H](Cc1ccc2ccccc2c1)C(=O)N[C@@H](Cc1ccccc1)C(=O)N[C@@H](CCCCN)C(N)=O [A b b F K amide] (H-A[d2Nal][d2Nal]FK-NH2) | – | – | 2.1 | 10 | –
CNCCCC(=O)NC(Cc1ccc2ccccc2c1)C(=O)N[C@H](Cc1ccc2ccccc2c1)C(=O)N[C@@H](Cc1ccccc1)C(=O)NC(CCCCN)C(N)=O (stereo partly drawn) [(mab) b b F K amide, [4-(N-methylamino)butanoyl]-DβNal-DβNal-Phe-Lys-amide] (NMeGABA-[ξ2Nal][d2Nal]F[ξK]-NH2) | – | – | 1.4 | 0.7 | –
CN(C(=O)CCCCN)[C@H](Cc1ccc2ccccc2c1)C(=O)N[C@H](Cc1ccc2ccccc2c1)C(=O)N[C@@H](Cc1ccccc1)C(N)=O [(Ava) nmb b F amide] (H-[Ava][dNMe2Nal][d2Nal]F-NH2) | 1.6 | 20 | – | – | –
CN(C(=O)[C@@H](Cc1ccc2ccccc2c1)NC(=O)C1CCNCC1)[C@H](Cc1ccc2ccccc2c1)C(=O)NC1CCNCC1 [(inip) b nmb api, (inip)-DβNal-(N-Me-DβNal)-N-(4-piperidinyl) amide] | 0.5 | 2 | – | – | –
NCCCC(=O)N[C@H](Cc1ccc2ccccc2c1)C(=O)N[C@H](Cc1ccc2ccccc2c1)C(=O)N[C@@H](Cc1ccccc1)C(N)=O [(Ab) b b F amide] (H-[GABA][d2Nal][d2Nal]F-NH2) | 3.1 | 10 | – | – | –
NC(=O)[C@H](Cc1ccccc1)NC(=O)[C@@H](Cc1ccc2ccccc2c1)NC(=O)[C@@H](Cc1ccc(Cl)cc1)NC(=O)C1CCNCC1 [(inip) chf b F amide] (H-[Inp][dPhe(4-Cl)][d2Nal]F-NH2) | 2.2 | 10 | – | – | –
NCCCCC(=O)N[C@H](Cc1ccc2ccccc2c1)C(=O)N[C@H](Cc1ccc2ccccc2c1)C(=O)N[C@@H](CCc1ccccc1)C(=O)N[C@@H](CCCCN)C(N)=O [(Ava) b b hF K amide] (H-[Ava][d2Nal][d2Nal][hPhe]K-NH2) | – | – | 5 | 50 | –
CN(C(=O)CCCCN)C(Cc1ccc2ccccc2c1)C(=O)N[C@H](Cc1ccc2ccccc2c1)C(=O)N[C@@H](Cc1ccccc1)C(=O)NC(CCCCN)C(N)=O (stereo partly drawn) [(Ava) nmb b F K amide, (5-aminovaleryl)-(N-Me-DβNal)-DβNal-Phe-Lys-amide] (H-[Ava][ξNMe2Nal][d2Nal]F[ξK]-NH2) | – | – | 1.8 | 0.4 | –
O=C(N[C@H](Cc1ccc2ccccc2c1)C(=O)N[C@H](Cc1ccc2ccccc2c1)C(=O)N[C@@H](Cc1ccccc1)C(=O)O)C1CCNCC1 [(inip) b b F acid, (inip)-DβNal-DβNal-Phe] (H-[Inp][d2Nal][d2Nal]F-OH) | 0.2 | 2 | – | – | –
NC(=O)C[C@H](Cc1ccccc1)NC(=O)[C@@H](Cc1ccc2ccccc2c1)NC(=O)[C@@H](Cc1ccc2ccccc2c1)NC(=O)C1CCNCC1 [(inip) b b hcF amide, (inip)-DβNal-DβNal-(3(S)-3-benzyl-β-Ala)-amide] (H-[Inp][d2Nal][d2Nal][β3hF]-NH2) | 0.2 | 2.5 | – | – | –
NCCCCC(=O)N[C@H](Cc1ccc2ccccc2c1)C(=O)N[C@H](Cc1ccc2ccccc2c1)C(=O)N[C@@H](Cc1ccccc1)C(=O)N1CCC[C@H]1C(N)=O [(Ava) b b F P amide] (H-[Ava][d2Nal][d2Nal]FP-NH2) | – | – | 51 | 50 | –
NC(=O)CCN(CCc1ccccc1)C(=O)[C@@H](Cc1ccc2ccccc2c1)NC(=O)[C@@H](Cc1ccc2ccccc2c1)NC(=O)C1CCNCC1 [(inip) b b feb amide] | 0.3 | 0.67 | – | – | –
O=C(N[C@H](Cc1ccc2ccccc2c1)C(=O)NCCc1c[nH]c2ccccc12)C1CCNCC1 [(inip) b tra, (inip)-DβNal-[N-tryptaminyl] amide] | – | – | – | – | EC50 (rat pituitary cells; Table V, formula II compounds): 100 nM; RAT IV ED50 (growth hormone secretion; Table V): 100 µg
